From PubChem BioAssay (NCI)
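How tested: cells in 96-well plates exposed to compound for 48 hours at five concentrations. Definition used: TGI = concentration required for complete inhibition of growth.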

How the values were obtained:
Assay in all cases: inhibition of tumour cell growth, NCI panel, 48 h
[1] = tested on: CCRF-CEM leukemia
[2] = tested on: SNB-19 CNS
[3] = tested on: SK-MEL-2 melanoma
[4] = tested on: MCF7 breast
[5] = tested on: T-47D breast
[6] = tested on: SF-539 CNS
[7] = tested on: KM12 colon
[8] = tested on: U251 CNS
[9] = tested on: COLO 205 colon
[10] = tested on: A498 renal
[11] = tested on: SW-620 colon
[12] = tested on: SNB-75 CNS
[13] = tested on: DU-145 prostate
[14] = tested on: MALME-3M melanoma
[15] = tested on: OVCAR-5 ovarian
[16] = tested on: UACC-257 melanoma
[17] = tested on: EKVX NSCLC
[18] = tested on: OVCAR-8 ovarian
[19] = tested on: 786-0 renal
[20] = tested on: NCI-H522 lung
[21] = tested on: SN12C renal
[22] = tested on: OVCAR-4 ovarian
[23] = tested on: NCI-H226 lung
[24] = tested on: HT29 colon
[25] = tested on: PC-3 prostate
[26] = tested on: HCT-15 colon
[27] = tested on: MOLT-4 leukemia
[28] = tested on: NCI-H460 lung
[29] = tested on: MDA-MB-231 breast
[30] = tested on: SK-MEL-5 melanoma
[31] = tested on: HCC-2998 colon
[32] = tested on: SK-OV-3 ovarian
[33] = tested on: HS 578T breast
[34] = tested on: RPMI-8226 leukemia
[35] = tested on: CAKI-1 renal
[36] = tested on: NCI/ADR-RES ovarian
[37] = tested on: HOP-62 NSCLC
[38] = tested on: SK-MEL-28 melanoma
[39] = tested on: ACHN renal
[40] = tested on: BT-549 breast
[41] = tested on: SF-295 CNS
[42] = tested on: M14 melanoma
[43] = tested on: UACC-62 melanoma
[44] = tested on: SR leukemia
[45] = tested on: HOP-92 NSCLC
[46] = tested on: A549 NSCLC
[47] = tested on: MDA-MB-435
[48] = tested on: HCT-116 colon
[49] = tested on: K-562 leukemia
[50] = tested on: HL-60(TB) leukemia
[51] = tested on: SF-268 CNS
[52] = tested on: NCI-H23 lung
[53] = tested on: OVCAR-3 ovarian
[54] = tested on: UO-31 renal
[55] = tested on: TK-10 renal
[56] = tested on: MDA-N
[57] = tested on: LOX IMVI melanoma
[58] = tested on: RXF 393 renal
[59] = tested on: IGROV1 ovarian

## O=C(c1c(Cl)cc(Cl)cc1Cl)N(Cc1cccnc1)C(=S)N(Cc1cccnc1)C(=O)c1c(Cl)cc(Cl)cc1Cl
[1]
  TGI: > 100 µM
[2]
  TGI: 52.4 µM
[3]
  TGI: 36 µM
[4]
  TGI: 15.8 µM
[5]
  TGI: 41.4 µM
[6]
  TGI: 28.4 µM
[7]
  TGI: 10.3 µM
[8]
  TGI: 27.3 µM
[9]
  TGI: 21.9 µM
[10]
  TGI: 51.6 µM
[11]
  TGI: > 100 µM
[12]
  TGI: 14.2 µM
[13]
  TGI: 17.2 µM
[14]
  TGI: 42.4 µM
[15]
  TGI: 40.8 µM
[16]
  TGI: 22.8 µM
[17]
  TGI: 35.3 µM
[18]
  TGI: 16.5 µM
[19]
  TGI: 10.5 µM
[20]
  TGI: 25.6 µM
[21]
  TGI: 20.5 µM
[22]
  TGI: 5.25 µM
[23]
  TGI: 45.1 µM
[24]
  TGI: 13.2 µM
[25]
  TGI: 24 µM
[26]
  TGI: 11.2 µM
[27]
  TGI: > 100 µM
[28]
  TGI: 32.9 µM
[29]
  TGI: 40.9 µM
[30]
  TGI: 26.4 µM
[31]
  TGI: 7.4 µM
[32]
  TGI: 77 µM
[33]
  TGI: 58.4 µM
[34]
  TGI: > 100 µM
[35]
  TGI: 19.8 µM
[36]
  TGI: 34.3 µM
[37]
  TGI: 20.3 µM
[38]
  TGI: 47.9 µM
[39]
  TGI: 41.1 µM
[40]
  TGI: 9.59 µM
[41]
  TGI: 43.2 µM
[42]
  TGI: 26.5 µM
[43]
  TGI: 34.2 µM
[44]
  TGI: > 100 µM
[45]
  TGI: 10.6 µM
[46]
  TGI: > 100 µM
[47]
  TGI: 26.5 µM
[48]
  TGI: 11.1 µM
[49]
  TGI: > 100 µM
[50]
  TGI: 64.7 µM
[51]
  TGI: 27.8 µM
[52]
  TGI: 23.5 µM
[53]
  TGI: 13.9 µM
[54]
  TGI: 19.4 µM
[55]
  TGI: 11.1 µM
[56]
  TGI: 5.2 µM
[57]
  TGI: 15.1 µM

## CC(C)(C)c1ccc(-n2c3nc(=O)n(-c4ccccc4C(F)(F)F)c(=O)c-3cc3ccccc32)cc1
[1]
  TGI: 41.9 µM
[2]
  TGI: > 100 µM
[3]
  TGI: 30.8 µM
[4]
  TGI: 72.9 µM
[5]
  TGI: > 100 µM
[6]
  TGI: 63.4 µM
[7]
  TGI: 37.3 µM
[8]
  TGI: 29.6 µM
[58]
  TGI: 51.7 µM
[9]
  TGI: 43.7 µM
[10]
  TGI: 76.3 µM
[11]
  TGI: 62.8 µM
[12]
  TGI: 71.3 µM
[13]
  TGI: > 100 µM
[15]
  TGI: 55.2 µM
[16]
  TGI: 48 µM
[17]
  TGI: 64.9 µM
[18]
  TGI: 84.6 µM
[19]
  TGI: > 100 µM
[20]
  TGI: 45.4 µM
[21]
  TGI: 59.1 µM
[22]
  TGI: > 100 µM
[23]
  TGI: 60.8 µM
[24]
  TGI: 37.5 µM
[25]
  TGI: 51 µM
[26]
  TGI: 31.3 µM
[27]
  TGI: 53 µM
[28]
  TGI: 16 µM
[29]
  TGI: 63 µM
[30]
  TGI: 29 µM
[31]
  TGI: 28.4 µM
[33]
  TGI: 68.1 µM
[35]
  TGI: 66.8 µM
[36]
  TGI: 89.8 µM
[37]
  TGI: 40.3 µM
[38]
  TGI: 23.5 µM
[39]
  TGI: 60 µM
[40]
  TGI: > 100 µM
[41]
  TGI: 60.5 µM
[42]
  TGI: 32.3 µM
[43]
  TGI: 33.8 µM
[44]
  TGI: 43.6 µM
[45]
  TGI: 51.7 µM
[46]
  TGI: > 100 µM
[47]
  TGI: 35.6 µM
[48]
  TGI: 25.1 µM
[49]
  TGI: 61.7 µM
[50]
  TGI: 36.1 µM
[51]
  TGI: > 100 µM
[52]
  TGI: > 100 µM
[59]
  TGI: > 100 µM
[53]
  TGI: 31.4 µM
[54]
  TGI: > 100 µM
[55]
  TGI: > 100 µM
[56]
  TGI: 74.8 µM
[57]
  TGI: 28.6 µM
